Data reported in PMC7321403, “Synthesis and In Vitro Cytotoxicity and Antibacterial Activity of Novel 1,2,3-Triazol-5-yl-Phosphonates” (Molecules, 2020).
Where two headings read alike, the source gives them in different places.

Tests used:
in vitro [1] = conditions: human
Protocol: (§4) Cells were purchased from the American Type Culture Collection (ATCC, Manassas, VA, USA). Human lung adenocarcinoma A549 cells were maintained in Dulbecco's Modified Eagle Medium (DMEM), while mouse fibroblast NIH/3T3 and human promyelocytic leukemia HL-60 cells were maintained in Roswell Park Memorial Institute 1640 medium (RPMI-1640) containing 10% FCS. Media were supplemented with 2 mM GlutaMAX, 100 U/mL penicillin, and 100 µg/mL streptomycin (Life Technologies, Carlsbad, California, USA). Cell cultures were maintained at 37 °C in a humidified incubator in an atmosphere of 5% CO2 (Sanyo, Japan).
(§5) Cytotoxicity of the synthesized molecules was determined on A549, NIH/3T3 and HL-60 cells using the fluorescent Resazurin assay as described previously [46].
(§6) Briefly, cells (A549 and NIH/3T3: 6000, HL-60: 120.000 cells/well) were seeded into 96-well plates (Corning Life Sciences) in media and incubated overnight. Test compounds were dissolved in three-fold amounts of dimethyl sulfoxide (DMSO). Cells were treated with an increasing concentration of test compounds (1–30 µM). […] Cell viability was determined after 72 h incubation. Resazurin reagent (Sigma-Aldrich) was added at a final concentration of 25 µg/mL. After a 2 h incubation at 37 °C in 5% CO2, fluorescence (530 nm excitation/580 nm emission) was recorded on a multimode microplate reader (Cytofluor4000, PerSeptive Biosytems). Viability was calculated with relation to untreated control cells and blank wells containing media without cells. […] A Student’s t test was performed for individual test compound concentrations with relation to untreated control cell viability values.

in vitro [2] = conditions: mouse
Protocol: as §4, §5, §6

B. subtilis-GFP = assay: Antibacterial activity on GFP producing Gram-positive bacteria (fluorimetry); format: cell-based, Bacillus subtilis; conditions: GFP fluorescence, 1–30 µM tested, mean ± SD
Protocol: (§1) Finally, the biological activity of the synthesized 1,2,3-triazol-5-yl-phosphonates (8, 11–26) was investigated. On the one hand, the antibacterial activity of the compounds was tested on GFP producing Gram-positive (Bacillus subtilis) and Gram-negative (Escherichia coli) bacterial cells. The GFP producing bacteria are an effective tool for screening for antibacterial activity since GFP signal measured via fluorimetry is proportional to the number of bacterial cells. Active compounds would kill bacterial cells, which results in the decrease in GFP fluorescence signal, therefore it is suitable for evaluating the antimicrobial effect of different agents. On the other hand, in vitro cytotoxicity assessments were performed on three different cell lines, such as human lung adenocarcinoma (A549), mouse fibroblast (NIH/3T3) as healthy cell line and human promyelocytic leukemia (HL-60). Table 3 contains the determined IC50 values in antimicrobial and cytotoxicity assays. According to the results, only modest antibacterial activity was detected against the more sensitive Bacillus subtilis strain.
(§2) All reagents were purchased from Sigma-Aldrich (Hungary, Budapest). E. coli-GFP and B. subtilis-GFP bacteria were grown in Lysogeny Broth (Luria-Bertani broth, LB, 10 g tryptone, 5 g yeast extract, 10 g/L NaCl, pH 7.0) medium overnight (ON) at 37 °C in an incubator with continuous shaking. The ON bacterial culture was diluted (E. coli-GFP: 1:10000, B. subtilis-GFP: 1:1000) in LB medium containing 10 µg/mL ampicillin. Two hundred microliters of diluted E. coli suspension per well were transferred to 96-well plates and different agents were added in the appropriate concentration, then incubated in a shaker (600 rpm) for 3 h at 37 °C. Test compounds were dissolved in 3-fold amounts of dimethyl sulfoxide (DMSO). […] For induction of the GFP expression IPTG (0.1 mM final concentration) was added to each well and incubated for 3 h at 37 °C.
(§3) The following incubation samples were centrifuged at 2750 rpm at room temperature (RT) for 5 min and washed twice with 200 µL PBS, with a centrifugation step between the two washes. After a third centrifugation step, the bacterial cells were suspended in 100 µL PBS. The number of bacteria was estimated according to the fluorimetric measurements. The fluorescence of the bacterial cells was measured by the Victor™ 1420 Multilabel Counter (Perkin Elmer, Waltham, MA, USA) at 485/535 nm for 1 sec per well controlled by Wallac 1420 Manager software. Each treatment was repeated in at least 2 wells per plate during the experiments. Percentage fluorescence intensity based on the quantity of E. coli-GFP cells was calculated using untreated control values as 100%. Error was represented by standard deviation (SD).

E. coli-GFP = assay: Antibacterial activity on GFP producing Gram-negative bacteria (fluorimetry); format: cell-based, Escherichia coli; conditions: GFP fluorescence, 1–30 µM tested, mean ± SD
Protocol: as §1, §2, §3

[3] = tested on: A549 cells (human lung adenocarcinoma)
Protocol: as §4, §5, §6

[4] = tested on: NIH/3T3 cells (mouse fibroblast)
Protocol: as §4, §5, §6

[5] = tested on: HL-60 cells (human promyelocytic leukemia); assay: In vitro cytotoxicity, fluorescent Resazurin assay
Protocol: as §4, §5, §6

[6] = In vitro cytotoxicity, fluorescent Resazurin assay; conditions: human, HL-60 cells (human promyelocytic leukemia), In Vitro Cytotoxicity (IC50, µM) HL-60, 72 h incubation, 1–30 µM tested, mean ± SD
Protocol: as §4, §5, §6

in vitro [7] = conditions: human, In Vitro Cytotoxicity (IC50, µM) HL-60, 72 h incubation, 1–30 µM tested, mean ± SD
Protocol: as §4, §5, §6

[8] = tested on: HL-60 cells (human promyelocytic leukemia)
Protocol: as §4, §5, §6

[9] = read-out: In Vitro Cytotoxicity (IC50, µM) HL-60, 72 h incubation, 1–30 µM tested, mean ± SD
[10] = A549 cells (human lung adenocarcinoma)
[11] = NIH/3T3 cells (mouse fibroblast)

Row | Molecule | IC50 at 72 h (in vitro [1]) [µM] | IC50 at 72 h (in vitro [2]) [µM] | IC50 (B. subtilis-GFP; Bacillus subtilis) [µM] | IC50 (E. coli-GFP; Escherichia coli) [µM] | IC50 at 72 h (in vitro [1]; [10]) [µM] | IC50 at 72 h (in vitro [2]; [11]) [µM] | IC50 at 72 h [6] [µM] | other results
1 | COc1cccc2c1C(=O)c1c(O)c3c(c(O)c1C2=O)C[C@@](O)(C(=O)CO)C[C@@H]3O[C@H]1C[C@H](N)[C@H](O)[C@H](C)O1 [Doxorubicin, reference compound] | 0.31 ± 0.24 | 5.65 ± 0.81 |  |  |  |  |  | 
2 | Dibutyl (1-isooctyl-4-phenyl-1,2,3-triazol-5-yl)phosphonate [Compound 26] |  |  |  |  |  |  |  | IC50 (B. subtilis-GFP): 29.6 ± 1 µM; IC50 (E. coli-GFP): > 30 µM; IC50 [3]: > 30 µM; IC50 [4]: > 30 µM; IC50 [5, 9]: 26.7 ± 1 µM
3 | CC(C)OP(=O)(OC(C)C)c1c(-c2ccccc2)nnn1Cc1ccccc1 [Compound 14, Diisopropyl (1-benzyl-4-phenyl-1,2,3-triazol-5-yl)phosphonate] |  |  | > 30 | > 30 | > 30 | > 30 | > 30 | 
4 | CCCCOP(=O)(OCCCC)c1c(-c2ccccc2)nnn1Cc1ccccc1F [Compound 19, Dibutyl [1-(2-fluorobenzyl)-4-phenyl-1,2,3-triazol-5-yl]phosphonate] |  |  | 19.3 ± 1 | > 30 | > 30 | 27.5 ± 1.1 | 11.7 ± 1.2 | 
5 | CCCCOP(=O)(OCCCC)c1c(-c2ccccc2)nnn1Cc1ccccc1 [Compound 8, Dibutyl (1-benzyl-4-phenyl-1,2,3-triazol-5-yl)phosphonate] |  |  | > 30 | > 30 | > 30 | 27.5 ± 1.4 | > 30 | 
6 | C[C@H]1c2cccc(O)c2C(=O)C2=C(O)[C@]3(O)C(=O)C(C(N)=O)=C(O)[C@@H](N(C)C)[C@@H]3[C@@H](O)[C@@H]21 [Doxycycline, reference compound] |  |  | 0.04 ± 0.01 | 0.1 ± 0.02 |  |  |  | 
7 | COP(=O)(OC)c1c(-c2ccccc2)nnn1Cc1ccc(C)cc1 [Compound 16, Dimethyl [1-(4-methylbenzyl)-4-phenyl-1,2,3-triazol-5-yl]phosphonate] | > 30 | 19.8 ± 1.2 | > 30 | > 30 |  |  |  | IC50 at 72 h (in vitro [7]): ~10 µM; IC50 [5, 9]: 11 ± 1.2 µM
8 | CCCOP(=O)(OCCC)c1c(-c2ccccc2)nnn1Cc1ccccc1 [Compound 13, Dipropyl (1-benzyl-4-phenyl-1,2,3-triazol-5-yl)phosphonate] |  |  | 29.3 ± 1.2 | > 30 | > 30 | > 30 | 12.6 ± 1.7 | 
9 | CCCCOP(=O)(OCCCC)c1c(-c2ccccc2)nnn1Cc1cccc(F)c1 [Compound 20, Dibutyl [1-(3-fluorobenzyl)-4-phenyl-1,2,3-triazol-5-yl]phosphonate] |  |  | > 30 | > 30 | > 30 | > 30 | 15.4 ± 1.2 | 
10 | CCCCOP(=O)(OCCCC)c1c(-c2ccccc2)nnn1Cc1ccc(C(F)(F)F)cc1 [Compound 22, Dibutyl [1-(4-trifluoromethyl)-4-phenyl-1,2,3-triazol-5-yl]phosphonate] |  |  | > 30 | > 30 | > 30 | 23.1 ± 1.2 | ~10 | IC50 [5, 9]: 9.7 ± 1.1 µM
11 | CCOP(=O)(OCC)c1c(-c2ccccc2)nnn1Cc1ccc(C)cc1 [Compound 17, Diethyl [1-(4-methylbenzyl)-4-phenyl-1,2,3-triazol-5-yl]phosphonate] | > 30 | > 30 | > 30 | > 30 |  |  |  | IC50 at 72 h (in vitro [7]): > 30 µM
12 | COP(=O)(OC)c1c(-c2ccccc2)nnn1Cc1ccccc1 [Compound 11, Dimethyl (1-benzyl-4-phenyl-1,2,3-triazol-5-yl)phosphonate] | > 30 | > 30 | > 30 | > 30 |  |  |  | IC50 at 72 h (in vitro [7]): > 30 µM
13 | CCCCCCCCn1nnc(-c2ccccc2)c1P(=O)(OC)OC [Compound 23, Dimethyl (1-octyl-4-phenyl-1,2,3-triazol-5-yl)phosphonate] | > 30 | > 30 | > 30 | > 30 |  |  |  | IC50 at 72 h (in vitro [7]): > 30 µM
14 | CCCCCOP(=O)(OCCCCC)c1c(-c2ccccc2)nnn1Cc1ccccc1 [Compound 15, Dipentyl (1-benzyl-4-phenyl-1,2,3-triazol-5-yl)phosphonate] |  |  | 23.9 ± 1 | > 30 | > 30 | 26.2 ± 1.1 | 15.4 ± 1.2 | 
15 | CCCCCCCCn1nnc(-c2ccccc2)c1P(=O)(OCCCC)OCCCC [Compound 25, Dibutyl (1-octyl-4-phenyl-1,2,3-triazol-5-yl)phosphonate] |  |  | > 30 | > 30 | > 30 | > 30 | > 30 | 
16 | CC(C)C[C@H](NC(=O)[C@H](Cc1ccccc1)NC(=O)c1cnccn1)B(O)O [Bortezomib, reference compound] |  |  |  |  |  |  |  | In Vitro Cytotoxicity (IC50, µM) HL-60 [8]: 7.42 × 10^−3 2.60 × 10^−3 µM; IC50 ([5]; Homo sapiens, HL-60, 72 h, read-out: IC50 for HL60 (positive control), 72 h incubation, value in nM): 0.00742 ± 0.0026 µM
17 | CNC(C)C1CCC(N)C(OC2C(N)CC(N)C(OC3OCC(C)(O)C(NC)C3O)C2O)O1 (centres unmarked) [Gentamicin, reference compound] |  |  | 0.49 ± 0.14 | 4.23 ± 0.99 |  |  |  | 
18 | CCCCOP(=O)(OCCCC)c1c(-c2ccccc2)nnn1Cc1ccc(C)cc1 [Compound 18, Dibutyl [1-(4-methylbenzyl)-4-phenyl-1,2,3-triazol-5-yl]phosphonate] |  |  | 18.2 ± 1 | > 30 | > 30 | > 30 | > 30 | 
19 | CCCCOP(=O)(OCCCC)c1c(-c2ccccc2)nnn1Cc1ccc(F)cc1 [Compound 21, Dibutyl [1-(4-fluorobenzyl)-4-phenyl-1,2,3-triazol-5-yl]phosphonate] |  |  | 23.2 ± 1.1 | > 30 | > 30 | > 30 | 16.6 ± 1.3 | 
20 | CCOP(=O)(OCC)c1c(-c2ccccc2)nnn1Cc1ccccc1 [Compound 12, Diethyl (1-benzyl-4-phenyl-1,2,3-triazol-5-yl)phosphonate] | > 30 | > 30 | > 30 | > 30 |  |  |  | IC50 at 72 h (in vitro [7]): > 30 µM
21 | CCCCCCCCn1nnc(-c2ccccc2)c1P(=O)(OCC)OCC [Compound 24, Diethyl (1-octyl-4-phenyl-1,2,3-triazol-5-yl)phosphonate] | > 30 | > 30 | > 30 | > 30 |  |  |  | IC50 at 72 h (in vitro [7]): > 30 µM
